In ChEMBL document CHEMBL4680207, “The discovery, design and synthesis of potent agonists of adenylyl cyclase type 2 by virtual screening combining biological evaluation” (Eur J Med Chem, 2020):
The source made the active and inactive calls. No cut-off for these calls is given here.

Tests used:
Type in all cases: cell-based
Adenylate cyclase type 2 [1] = target: T1, Adenylate cyclase type 2 (Homo sapiens, UniProt Q08462); experiment: Agonist activity at recombinant human AC2 expressed in HEK293 cells assessed as increase in cAMP level by measuring cAMP level at 50 uM measured after 30 mins by LANCE Ultra cAMP Detection kit method relative to control; settings: filed as agonist
T1 sequence (Q08462 whole entry): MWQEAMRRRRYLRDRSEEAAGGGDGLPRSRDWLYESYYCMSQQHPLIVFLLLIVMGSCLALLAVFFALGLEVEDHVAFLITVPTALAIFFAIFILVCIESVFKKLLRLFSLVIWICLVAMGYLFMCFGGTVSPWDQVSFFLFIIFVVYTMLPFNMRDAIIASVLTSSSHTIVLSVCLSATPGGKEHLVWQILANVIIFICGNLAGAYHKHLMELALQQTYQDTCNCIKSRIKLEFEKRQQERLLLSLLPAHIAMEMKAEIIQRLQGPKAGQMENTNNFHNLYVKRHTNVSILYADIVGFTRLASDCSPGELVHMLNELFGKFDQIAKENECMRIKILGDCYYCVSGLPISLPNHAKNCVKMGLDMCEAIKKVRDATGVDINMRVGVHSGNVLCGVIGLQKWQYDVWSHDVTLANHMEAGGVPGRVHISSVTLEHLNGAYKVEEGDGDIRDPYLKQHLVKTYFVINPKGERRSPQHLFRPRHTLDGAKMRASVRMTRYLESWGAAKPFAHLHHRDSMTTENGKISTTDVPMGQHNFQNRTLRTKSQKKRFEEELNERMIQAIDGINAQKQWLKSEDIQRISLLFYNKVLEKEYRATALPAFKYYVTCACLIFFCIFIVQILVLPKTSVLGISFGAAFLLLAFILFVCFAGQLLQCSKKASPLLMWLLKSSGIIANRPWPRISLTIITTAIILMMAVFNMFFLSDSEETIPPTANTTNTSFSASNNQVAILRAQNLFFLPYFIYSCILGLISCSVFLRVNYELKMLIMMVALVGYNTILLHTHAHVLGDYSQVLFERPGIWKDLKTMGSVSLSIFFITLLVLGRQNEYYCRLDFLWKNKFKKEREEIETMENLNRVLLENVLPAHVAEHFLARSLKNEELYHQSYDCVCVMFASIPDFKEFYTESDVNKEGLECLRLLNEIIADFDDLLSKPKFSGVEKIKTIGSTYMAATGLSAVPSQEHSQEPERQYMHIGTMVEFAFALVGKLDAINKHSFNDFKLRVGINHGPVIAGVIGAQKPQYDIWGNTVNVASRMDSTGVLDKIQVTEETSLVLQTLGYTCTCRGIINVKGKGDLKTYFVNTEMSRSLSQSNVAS

Adenylate cyclase type 2 [2] = target: T1, Adenylate cyclase type 2; experiment: Agonist activity at recombinant human AC2 expressed in HEK293 cells assessed as increase in cAMP level at 50 uM measured after 30 mins by LANCE Ultra cAMP Detection kit method; settings: filed as agonist
Adenylate cyclase type 2 [3] = target: T1, Adenylate cyclase type 2; experiment: Agonist activity at recombinant human AC2 expressed in HEK293 cells assessed as increase in cAMP level measured after 30 mins by LANCE Ultra cAMP Detection kit method
Adenylate cyclase type 5 = Adenylate cyclase type 5 (Homo sapiens, UniProt O95622); experiment: Agonist activity at recombinant human AC5 expressed in HEK293 cells assessed as increase in cAMP level at 50 uM measured after 30 mins by LANCE Ultra cAMP Detection kit method; settings: hek293, 0.5 h
Adenylate cyclase type 5, sequence (O95622 whole entry): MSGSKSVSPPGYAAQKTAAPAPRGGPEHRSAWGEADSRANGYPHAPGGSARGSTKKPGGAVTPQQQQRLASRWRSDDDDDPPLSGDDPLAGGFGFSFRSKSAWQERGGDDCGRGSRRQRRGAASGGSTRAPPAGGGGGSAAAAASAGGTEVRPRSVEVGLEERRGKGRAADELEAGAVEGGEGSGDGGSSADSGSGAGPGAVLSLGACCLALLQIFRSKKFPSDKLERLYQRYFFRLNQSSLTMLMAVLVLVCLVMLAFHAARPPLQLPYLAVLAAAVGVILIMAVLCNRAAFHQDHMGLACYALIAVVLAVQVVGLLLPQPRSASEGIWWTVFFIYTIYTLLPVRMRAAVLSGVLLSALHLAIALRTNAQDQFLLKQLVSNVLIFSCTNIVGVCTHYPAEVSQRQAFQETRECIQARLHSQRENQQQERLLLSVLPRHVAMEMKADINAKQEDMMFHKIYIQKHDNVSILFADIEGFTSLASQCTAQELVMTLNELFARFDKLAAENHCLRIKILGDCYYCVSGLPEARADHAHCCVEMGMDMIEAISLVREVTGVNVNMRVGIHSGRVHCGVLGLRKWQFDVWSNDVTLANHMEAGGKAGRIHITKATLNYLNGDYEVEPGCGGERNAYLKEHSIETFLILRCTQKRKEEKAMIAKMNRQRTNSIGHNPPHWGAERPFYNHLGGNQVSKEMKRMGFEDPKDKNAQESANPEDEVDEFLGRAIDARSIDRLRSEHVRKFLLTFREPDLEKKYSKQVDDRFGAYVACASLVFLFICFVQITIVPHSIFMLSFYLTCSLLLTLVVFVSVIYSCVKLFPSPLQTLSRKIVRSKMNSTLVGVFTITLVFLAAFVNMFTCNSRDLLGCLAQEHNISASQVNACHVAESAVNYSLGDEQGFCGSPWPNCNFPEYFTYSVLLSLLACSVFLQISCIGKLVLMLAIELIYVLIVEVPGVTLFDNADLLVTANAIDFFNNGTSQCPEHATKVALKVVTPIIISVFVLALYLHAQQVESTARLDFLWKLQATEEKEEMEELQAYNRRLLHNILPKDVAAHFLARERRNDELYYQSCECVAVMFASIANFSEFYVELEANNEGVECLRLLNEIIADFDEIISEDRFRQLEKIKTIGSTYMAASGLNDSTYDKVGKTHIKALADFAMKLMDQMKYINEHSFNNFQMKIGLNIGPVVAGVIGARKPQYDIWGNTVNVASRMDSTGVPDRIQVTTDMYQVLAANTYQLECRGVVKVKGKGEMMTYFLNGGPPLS

Adenylate cyclase type 8 = Adenylate cyclase type 8 (Homo sapiens, UniProt P40145); experiment: Agonist activity at recombinant human AC8 expressed in HEK293 cells assessed as increase in cAMP level at 50 uM measured after 30 mins by LANCE Ultra cAMP Detection kit method; settings: hek293, 0.5 h
Adenylate cyclase type 8, sequence (P40145 whole entry): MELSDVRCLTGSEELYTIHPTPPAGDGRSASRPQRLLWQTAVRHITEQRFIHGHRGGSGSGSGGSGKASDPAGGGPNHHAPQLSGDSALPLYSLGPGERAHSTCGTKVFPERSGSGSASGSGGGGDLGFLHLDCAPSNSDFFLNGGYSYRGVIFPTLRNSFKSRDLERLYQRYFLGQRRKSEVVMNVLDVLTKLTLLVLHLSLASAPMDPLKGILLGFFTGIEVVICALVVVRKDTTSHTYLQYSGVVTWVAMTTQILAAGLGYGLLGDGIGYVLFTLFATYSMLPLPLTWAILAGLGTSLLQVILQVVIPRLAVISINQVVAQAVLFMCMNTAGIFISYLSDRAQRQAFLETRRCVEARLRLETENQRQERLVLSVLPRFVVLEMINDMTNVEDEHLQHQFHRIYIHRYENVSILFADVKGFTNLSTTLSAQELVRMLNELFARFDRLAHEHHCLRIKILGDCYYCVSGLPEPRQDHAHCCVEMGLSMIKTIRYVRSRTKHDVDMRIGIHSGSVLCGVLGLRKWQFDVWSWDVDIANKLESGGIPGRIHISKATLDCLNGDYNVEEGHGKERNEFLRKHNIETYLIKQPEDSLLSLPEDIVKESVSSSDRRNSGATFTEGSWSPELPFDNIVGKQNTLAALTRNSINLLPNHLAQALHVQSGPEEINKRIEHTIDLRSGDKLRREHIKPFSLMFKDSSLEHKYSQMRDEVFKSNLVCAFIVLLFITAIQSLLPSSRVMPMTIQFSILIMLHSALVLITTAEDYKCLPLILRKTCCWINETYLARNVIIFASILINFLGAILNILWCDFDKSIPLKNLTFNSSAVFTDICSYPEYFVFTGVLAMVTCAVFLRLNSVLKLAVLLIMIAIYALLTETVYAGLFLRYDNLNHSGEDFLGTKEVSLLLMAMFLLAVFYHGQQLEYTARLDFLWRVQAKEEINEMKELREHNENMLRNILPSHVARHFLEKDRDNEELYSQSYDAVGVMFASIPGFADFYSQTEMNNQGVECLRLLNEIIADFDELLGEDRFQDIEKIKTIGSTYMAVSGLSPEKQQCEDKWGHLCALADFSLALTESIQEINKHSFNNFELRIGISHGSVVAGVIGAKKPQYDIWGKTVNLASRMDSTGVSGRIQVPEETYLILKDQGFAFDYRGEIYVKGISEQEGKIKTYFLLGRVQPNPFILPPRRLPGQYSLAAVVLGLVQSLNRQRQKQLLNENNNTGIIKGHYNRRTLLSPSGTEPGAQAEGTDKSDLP

Adenylate cyclase type 2 [4] = target: T1, Adenylate cyclase type 2; experiment: Agonist activity at recombinant human AC2 expressed in HEK293 cells assessed as reduction in IL6 level by measuring IL6 level at 50 uM measured after 24 hrs by ELISA relative to control; design: scale not given: the % may be the effect or the level left
Adenylate cyclase type 1 = Adenylate cyclase type 1 (Homo sapiens, UniProt Q08828); experiment: Agonist activity at recombinant human AC1 expressed in HEK293 cells assessed as increase in cAMP level at 50 uM measured after 30 mins by LANCE Ultra cAMP Detection kit method; settings: hek293, 0.5 h
Adenylate cyclase type 1, sequence (Q08828 whole entry): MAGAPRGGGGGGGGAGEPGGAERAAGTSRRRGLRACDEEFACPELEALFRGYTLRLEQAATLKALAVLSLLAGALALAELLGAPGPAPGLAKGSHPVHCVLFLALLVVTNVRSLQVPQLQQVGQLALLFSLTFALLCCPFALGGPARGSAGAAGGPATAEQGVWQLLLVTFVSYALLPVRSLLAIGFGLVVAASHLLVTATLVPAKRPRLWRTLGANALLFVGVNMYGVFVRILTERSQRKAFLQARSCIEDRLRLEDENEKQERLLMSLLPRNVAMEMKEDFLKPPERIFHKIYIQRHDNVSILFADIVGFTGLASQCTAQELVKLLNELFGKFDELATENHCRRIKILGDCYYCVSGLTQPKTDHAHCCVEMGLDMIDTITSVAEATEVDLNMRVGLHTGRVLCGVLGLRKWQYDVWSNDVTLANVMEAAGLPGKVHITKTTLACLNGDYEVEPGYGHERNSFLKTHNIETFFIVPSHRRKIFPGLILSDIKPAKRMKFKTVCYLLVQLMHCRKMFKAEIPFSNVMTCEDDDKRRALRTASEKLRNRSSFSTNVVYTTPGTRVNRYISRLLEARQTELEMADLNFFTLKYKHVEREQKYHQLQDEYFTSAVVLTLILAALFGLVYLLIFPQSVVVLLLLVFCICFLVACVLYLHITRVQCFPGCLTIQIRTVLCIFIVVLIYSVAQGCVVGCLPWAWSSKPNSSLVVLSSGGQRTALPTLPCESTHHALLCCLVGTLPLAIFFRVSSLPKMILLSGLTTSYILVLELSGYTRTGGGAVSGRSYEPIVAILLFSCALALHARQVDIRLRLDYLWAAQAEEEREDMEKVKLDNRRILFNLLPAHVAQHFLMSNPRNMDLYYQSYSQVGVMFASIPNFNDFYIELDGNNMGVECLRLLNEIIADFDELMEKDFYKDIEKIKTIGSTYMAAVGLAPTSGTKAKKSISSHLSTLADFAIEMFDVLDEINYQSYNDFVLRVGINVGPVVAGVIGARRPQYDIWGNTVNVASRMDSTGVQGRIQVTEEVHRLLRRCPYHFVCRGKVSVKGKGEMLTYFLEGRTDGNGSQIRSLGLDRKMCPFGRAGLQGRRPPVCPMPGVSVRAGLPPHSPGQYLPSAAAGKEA

Adenylate cyclase type 2 [5] = target: T1, Adenylate cyclase type 2; experiment: Potency index, ratio of forskolin EC50 to test compound EC50 for agonist activity at recombinant human AC2 expressed in HEK293 cells assessed as increase in cAMP level

Row | Compound | Activity (Adenylate cyclase type 2 [1]) | EC50 (Adenylate cyclase type 2 [3]) | further results
1 | O=C1[C@H]2[C@@H](c3ccccc3)OC3(C(=O)c4ccccc4C3=O)[C@H]2C(=O)N1c1cccc(Cl)c1 | 103% | 8100 nM | Activity (Adenylate cyclase type 2 [2]): Active; Activity (Adenylate cyclase type 2 [3]; filed as agonist): Dose-dependent effect
2 | CCOc1ccc(N2C(=O)[C@H]3[C@@H](c4ccccc4)OC4(C(=O)c5ccccc5C4=O)[C@H]3C2=O)cc1 | 82.3% | 32300 nM | 
3 | Cc1ccc(Cl)cc1N1C(=O)[C@H]2[C@@H](c3ccccc3)OC3(C(=O)c4ccccc4C3=O)[C@H]2C1=O | 101% | 3120 nM | 
4 | Cc1ccc([C@H]2OC3(C(=O)c4cccc(C)c4C3=O)[C@H]3C(=O)N(c4ccccc4Cl)C(=O)[C@@H]23)cc1 (mixture of isomers) | 59.3% | 1080 nM | 
5 | O=C1[C@H]2[C@@H](c3ccc(Cl)cc3)OC3(C(=O)c4ccccc4C3=O)[C@H]2C(=O)N1c1ccc(F)cc1 | 100% | 530 nM | 
6 | CCOC(=O)C1(Cc2ccc(Cl)cc2Cl)C(=O)Nc2ccccc21 (stereo unspecified) |  |  | Activity (Adenylate cyclase type 8): Active
7 | Cc1cccc([C@H]2OC3(C(=O)c4ccccc4C3=O)[C@H]3C(=O)N(c4ccccc4Cl)C(=O)[C@@H]23)c1 | 57.4% | 6810 nM | 
8 | O=C1[C@H]2[C@@H](c3ccccc3)OC3(C(=O)c4ccccc4C3=O)[C@H]2C(=O)N1c1ccc(Cl)cc1 | 91.5% | 2060 nM | 
9 | CCC[C@H]1OC2(C(=O)c3ccccc3C2=O)[C@H]2C(=O)N(c3ccccc3Cl)C(=O)[C@@H]12 | 59.6% | 4290 nM | 

Further lines, with some results ahead:

Row | Activity (Adenylate cyclase type 2 [1]) | EC50 (Adenylate cyclase type 2 [3]) | Compound | further results
10 | 87.8% | 90 nM | Cc1ccc([C@H]2OC3(C(=O)c4ccc(Br)cc4C3=O)[C@H]3C(=O)N(c4ccccc4Cl)C(=O)[C@@H]23)cc1 (stereo partly specified) | Activity (Adenylate cyclase type 5): Not Active; Activity (Adenylate cyclase type 8): Not Active; Activity (Adenylate cyclase type 2 [4]): 37.1%; Activity (Adenylate cyclase type 1): Not Active; Ratio EC50 (Adenylate cyclase type 2 [5]): 160
11 | 103% | 520 nM | Cc1ccc([C@H]2OC3(C(=O)c4ccccc4C3=O)[C@H]3C(=O)N(c4ccc(F)c(Cl)c4)C(=O)[C@@H]23)cc1 | 
12 | 64.9% | 3440 nM | Cc1ccc([C@H]2OC3(C(=O)c4ccccc4C3=O)[C@H]3C(=O)N(C4CCCC4)C(=O)[C@@H]23)cc1 | 
13 | 93.6% | 17100 nM | COc1ccc(N2C(=O)[C@H]3[C@@H](c4ccc(C)cc4)OC4(C(=O)c5ccccc5C4=O)[C@H]3C2=O)cc1 | 
14 | 104% | 210 nM | Cc1ccc([C@H]2OC3(C(=O)c4ccccc4C3=O)[C@H]3C(=O)N(c4ccc(C)c(C)c4)C(=O)[C@@H]23)cc1 | 
15 | 96.4% | 750 nM | Cc1ccc([C@H]2OC3(C(=O)c4ccccc4C3=O)[C@H]3C(=O)N(c4ccc(C)c(Cl)c4)C(=O)[C@@H]23)cc1 | 
